Reference: ChEMBL document CHEMBL1128692, “Peptidomimetic inhibitors of herpes simplex virus ribonucleotide reductase: a new class of antiviral agents” (J Med Chem, 1995)
Non-standard residues stand in square brackets, D forms with d. Residues, ends and D or L forms follow the SMILES beside them. *: point of attachment. Asp(3,3-(CH2)4) = N[C@H](C(=O)O)C1(C(=O)O)CCCC1; Dibenzylacetyl = O=C(C(Cc1ccccc1)Cc1ccccc1)*; Leu(γ-Me)ol = CC(C)(C)C[C@@H](CO)N*; Hydrocinnamoyl = O=C(CCc1ccccc1)*; tBuAla = CC(C)(C)C[C@H](N)C(=O)O; Butanoyl(2-Et) = CCC(CC)C(=O)*; Chg = N[C@H](C(=O)O)C1CCCCC1; Tle = CC(C)(C)[C@H](N)C(=O)O; NMeV = CN[C@H](C(=O)O)C(C)C; Leu(ol) = CC(C)C[C@H](N)CO; Pyrrolidide = C1CCN(*)C1; Abu = CC[C@H](N)C(=O)O

What was measured:
[1] = molecular target: Ribonucleotide reductase large subunit (Herpes simplex virus 1); assay: In vitro inhibitory activity against HSV ribonucleotide reductase
[2] = molecular target: Ribonucleotide reductase large subunit (Herpes simplex virus 1); assay: Inhibitory activity against HSV-1 in baby hamster kidney cell
[3] = molecular target: Ribonucleotide reductase large subunit (Herpes simplex virus 2); assay: Inhibitory activity against HSV-2 in baby hamster kidney cell

Row | SMILES | IC50 [1] [µM] | EC50 [2] [µM] | EC50 [3] [µM]
1 | CC(C)C[C@H](NC(=O)[C@H](CC(=O)O)NC(=O)[C@H](CC(N)=O)NC(=O)[C@@H](NC(=O)[C@@H](NC(=O)[C@@H](C)Cc1ccccc1)C(C)C)C(C)C)C(=O)O | 11 |  | 
2 | CCC(CC)C(=O)N[C@H](C(=O)N[C@@H](CC(=O)N1CCCC1)C(=O)N[C@H](C(=O)N[C@@H](CC(C)C)C(=O)O)C1(C(=O)O)CC=CC1)C(C)(C)C | 0.0064 |  | 
3 | CC(C)C[C@H](NC(=O)[C@H](CC(=O)O)NC(=O)[C@H](CC(N)=O)NC(=O)[C@@H](NC(=O)[C@@H](NC(=O)[C@H](C)Cc1ccccc1)C(C)C)C(C)C)C(=O)O | 0.86 |  | 
4 | CC(C)C[C@H](NC(=O)[C@H](CC(=O)O)NC(=O)[C@H](CC(N)=O)NC(=O)[C@@H](NC(=O)[C@@H](NC(=O)C(Cc1ccccc1)Cc1ccccc1)C(C)C)C(C)C)C(=O)O | 0.18 |  | 
5 | CC(C)C[C@H](NC(=O)[C@H](CC(=O)O)NC(=O)[C@H](CC(N)=O)NC(=O)[C@@H](NC(=O)[C@@H](NC(=O)CCc1ccccc1)C(C)C)C(C)C)C(=O)O | 4 |  | 
6 | CC(C)C[C@H](NC(=O)[C@H](CC(=O)O)NC(=O)[C@H](CC(N)=O)NC(=O)[C@@H](NC(=O)[C@H](C(C)C)N(C)C(=O)C(Cc1ccccc1)Cc1ccccc1)C(C)C)C(=O)O | 0.022 |  | 
7 | CC(=O)N[C@H](C(=O)N[C@H](C(=O)N[C@@H](CC(=O)N1CCCC1)C(=O)N[C@@H](CC(=O)O)C(=O)N[C@@H](CC(C)C)C(=O)O)C(C)C)C(C)C (Ac-VVD(Pyrrolidide)DL-OH) | 0.88 |  | 
8 | CC(C)C[C@H](NC(=O)[C@H](CC(=O)O)NC(=O)[C@H](CC(=O)N1CCCC1)NC(=O)[C@@H](NC(=O)[C@@H](NC(=O)C(Cc1ccccc1)Cc1ccccc1)C(C)C)C(C)C)C(=O)O (Dibenzylacetyl-VVD(Pyrrolidide)DL-OH) | 0.0007 |  | 
9 | CC(C)[C@H](NC(=O)C(Cc1ccccc1)Cc1ccccc1)C(=O)N[C@H](C(=O)N[C@@H](CC(=O)N1CCCC1)C(=O)N[C@H](C(=O)N[C@H](CO)CC(C)(C)C)C1(C(=O)O)CCCC1)C(C)(C)C (Dibenzylacetyl-V[Tle]D(Pyrrolidide)[Asp(3,3-(CH2)4)]-{Leu(γ-Me)ol}) |  | 12 | 14
10 | CC(C)[C@H](NC(=O)[C@H](C(C)C)N(C)C(=O)C(Cc1ccccc1)Cc1ccccc1)C(=O)N[C@@H](CC(=O)N1CCCC1)C(=O)N[C@H](C(=O)N[C@H](CO)CC(C)(C)C)C1(C(=O)O)CCCC1 (Dibenzylacetyl-[NMeV]VD(Pyrrolidide)[Asp(3,3-(CH2)4)]-{Leu(γ-Me)ol}) |  | 7 | 6.5
11 | CC(C)[C@@H](C(=O)N[C@H](C(=O)N[C@@H](CC(=O)N1CCCC1)C(=O)N[C@@H](CC(=O)O)C(=O)N[C@H](CO)CC(C)(C)C)C(C)(C)C)N(C)C(=O)C(Cc1ccccc1)Cc1ccccc1 (Dibenzylacetyl-[NMeV][Tle]D(Pyrrolidide)D-{Leu(γ-Me)ol}) |  | 30 | 39
12 | CC(C)[C@@H](C(=O)N[C@H](C(=O)N[C@@H](CC(=O)N1CCCC1)C(=O)N[C@H](C(=O)N[C@H](CO)CC(C)(C)C)C1(C(=O)O)CCCC1)C(C)(C)C)N(C)C(=O)C(Cc1ccccc1)Cc1ccccc1 (Dibenzylacetyl-[NMeV][Tle]D(Pyrrolidide)[Asp(3,3-(CH2)4)]-{Leu(γ-Me)ol}) |  | 3.1 | 4.2
13 | CC(C)C[C@@H](CO)NC(=O)[C@@H](NC(=O)[C@H](CC(=O)N1CCCC1)NC(=O)[C@@H](NC(=O)[C@H](C(C)C)N(C)C(=O)C(Cc1ccccc1)Cc1ccccc1)C(C)(C)C)C1(C(=O)O)CCCC1 (Dibenzylacetyl-[NMeV][Tle]D(Pyrrolidide)[Asp(3,3-(CH2)4)][Leu(ol)]) |  | 7.3 | 7.3
14 | CC(C)[C@@H](C(=O)N[C@H](C(=O)N[C@@H](CC(=O)N1CCCC1)C(=O)N[C@H](C(=O)N[C@@H](CC(C)(C)C)C(=O)O)C1(C(=O)O)CCCC1)C(C)(C)C)N(C)C(=O)C(Cc1ccccc1)Cc1ccccc1 (Dibenzylacetyl-[NMeV][Tle]D(Pyrrolidide)[Asp(3,3-(CH2)4)][tBuAla]-OH) |  | 35 | 30
15 | CC(C)[C@@H](C(=O)N[C@H](C(=O)N[C@@H](CC(N)=O)C(=O)N[C@H](C(=O)N[C@H](CO)CC(C)(C)C)C1(C(=O)O)CCCC1)C(C)(C)C)N(C)C(=O)C(Cc1ccccc1)Cc1ccccc1 (Dibenzylacetyl-[NMeV][Tle]N[Asp(3,3-(CH2)4)]-{Leu(γ-Me)ol}) |  | 150 | 150
16 | CC(C)C[C@H](NC(=O)[C@H](CC(=O)O)NC(=O)[C@H](CC(=O)N1CCCC1)NC(=O)[C@@H](NC(=O)[C@H](C)NC(=O)CCc1ccccc1)C(C)C)C(=O)O (Hydrocinnamoyl-AVD(Pyrrolidide)DL-OH) | 8.8 |  | 
17 | CC(C)C[C@H](NC(=O)[C@H](CC(=O)O)NC(=O)[C@H](CC(=O)N1CCCC1)NC(=O)[C@@H](NC(=O)CNC(=O)CCc1ccccc1)C(C)C)C(=O)O (Hydrocinnamoyl-GVD(Pyrrolidide)DL-OH) | 115 |  | 
18 | CC[C@H](C)[C@H](NC(=O)CCc1ccccc1)C(=O)N[C@H](C(=O)N[C@@H](CC(=O)N1CCCC1)C(=O)N[C@@H](CC(=O)O)C(=O)N[C@@H](CC(C)C)C(=O)O)C(C)C (Hydrocinnamoyl-IVD(Pyrrolidide)DL-OH) | 0.061 |  | 
19 | CC(C)[C@H](NC(=O)CCc1ccccc1)C(=O)N[C@H](C(=O)N[C@@H](CC(=O)N1CCCC1)C(=O)N[C@@H](CC(=O)O)C(=O)N[C@H](CO)CC(C)(C)C)C(C)C (Hydrocinnamoyl-VVD(Pyrrolidide)D-{Leu(γ-Me)ol}) | 0.034 |  | 
20 | CC(C)C[C@H](NC(=O)[C@H](CC(=O)O)NC(=O)[C@H](CC(=O)N1CCCC1)NC(=O)[C@@H](NC(=O)[C@@H](NC(=O)CCc1ccccc1)C(C)C)C(C)C)C(=O)O (Hydrocinnamoyl-VVD(Pyrrolidide)DL-OH) | 0.024 |  | 
21 | CC(C)[C@H](NC(=O)CCc1ccccc1)C(=O)N[C@H](C(=O)N[C@@H](CC(=O)N1CCCC1)C(=O)N[C@@H](CC(=O)O)C(=O)N[C@@H](CC(C)(C)C)C(=O)O)C(C)C (Hydrocinnamoyl-VVD(Pyrrolidide)D[tBuAla]-OH) | 0.005 |  | 
22 | CC(C)C[C@H](NC(=O)[C@@H](NC(=O)[C@H](CC(=O)N1CCCC1)NC(=O)[C@@H](NC(=O)[C@@H](NC(=O)CCc1ccccc1)C(C)C)C(C)C)C1(C(=O)O)CCCC1)C(=O)O (Hydrocinnamoyl-VVD(Pyrrolidide)[Asp(3,3-(CH2)4)]L-OH) | 0.001 |  | 
23 | CC(C)C[C@H](NC(=O)[C@H](CC(=O)O)NC(=O)[C@H](CC(=O)N1CCCC1)NC(=O)[C@@H](NC(=O)[C@@H](NC(=O)CCc1ccccc1)C(C)C)C(C)(C)C)C(=O)O (Hydrocinnamoyl-V[Tle]D(Pyrrolidide)DL-OH) | 0.004 |  | 
24 | CC[C@H](NC(=O)CCc1ccccc1)C(=O)N[C@H](C(=O)N[C@@H](CC(=O)N1CCCC1)C(=O)N[C@@H](CC(=O)O)C(=O)N[C@@H](CC(C)C)C(=O)O)C(C)C (Hydrocinnamoyl-[Abu]VD(Pyrrolidide)DL-OH) | 0.34 |  | 
25 | CC(C)C[C@H](NC(=O)[C@H](CC(=O)O)NC(=O)[C@H](CC(=O)N1CCCC1)NC(=O)[C@@H](NC(=O)[C@@H](NC(=O)CCc1ccccc1)C1CCCCC1)C(C)C)C(=O)O (Hydrocinnamoyl-[Chg]VD(Pyrrolidide)DL-OH) | 0.022 |  | 
26 | CC(C)C[C@H](NC(=O)[C@H](CC(=O)O)NC(=O)[C@H](CC(=O)N1CCCC1)NC(=O)[C@@H](NC(=O)[C@H](C(C)C)N(C)C(=O)CCc1ccccc1)C(C)C)C(=O)O (Hydrocinnamoyl-[NMeV]VD(Pyrrolidide)DL-OH) | 0.0075 |  | 
27 | CC(C)[C@@H](C(=O)N[C@H](C(=O)N[C@@H](CC(=O)N1CCCC1)C(=O)N[C@H](C(=O)N[C@H](CO)CC(C)(C)C)C1(C(=O)O)CCCC1)C(C)(C)C)N(C)C(=O)CCc1ccccc1 (Hydrocinnamoyl-[NMeV][Tle]D(Pyrrolidide)[Asp(3,3-(CH2)4)]-{Leu(γ-Me)ol}) |  | 52 | 35
28 | CC(C)C[C@H](NC(=O)[C@H](CC(=O)O)NC(=O)[C@H](CC(=O)N1CCCC1)NC(=O)[C@@H](NC(=O)[C@@H](NC(=O)CCc1ccccc1)C(C)(C)C)C(C)C)C(=O)O (Hydrocinnamoyl-[Tle]VD(Pyrrolidide)DL-OH) | 0.036 |  | 
29 | CCC(CC)C(=O)N[C@H](C(=O)N[C@@H](CC(=O)N1CCCC1)C(=O)N[C@@H](CC(=O)O)C(=O)N[C@@H](CC(C)C)C(=O)O)C(C)C ({Butanoyl(2-Et)}-VD(Pyrrolidide)DL-OH) | 0.86 |  | 
